ChEMBL document CHEMBL1147878, “Synthesis and in vitro antimicrobial activity of new 2-[p-substituted-benzyl]-5-[substituted-carbonylamino]benzoxazoles” (2007)
≈ marks a conversion by molar mass, not a printed value.

Experiments:
Type in all cases: functional
[1] = tested on: Pseudomonas aeruginosa; test: Antibacterial activity against Pseudomonas aeruginosa ATCC 10145 after 24 hrs by serial dilution method
[2] = tested on: Bacillus subtilis; test: Antibacterial activity against Bacillus subtilis ATCC 6633 after 24 hrs by serial dilution method
[3] = tested on: Candida albicans; test: Antifungal activity against Candida albicans after 48 hrs by serial dilution method
[4] = tested on: Staphylococcus aureus; test: Antibacterial activity against Staphylococcus aureus ATCC 25923 after 24 hrs by serial dilution method
[5] = tested on: Nakaseomyces glabratus; test: Antifungal activity against Candida glabrata after 48 hrs by serial dilution method
[6] = tested on: Escherichia coli; test: Antibacterial activity against Escherichia coli ATCC 23556 after 24 hrs by serial dilution method
[7] = tested on: Pichia kudriavzevii; test: Antifungal activity against Candida krusei ATCC 6258 after 48 hrs by serial dilution method; details: ATCC 6258, 48 h

Compound | MIC ([1]; ATCC 10145, 24 h) | MIC ([2]; ATCC 6633, 24 h) | MIC [3] | MIC ([4]; ATCC 25923, 24 h) | MIC [5] | MIC ([6]; ATCC 23556, 24 h) | MIC [7] | MIC [1] | MIC [2] | MIC [4] | MIC [6]
Cc1ccc(C)c(C(=O)Nc2ccc3oc(Cc4ccc(Cl)cc4)nc3c2)c1 | 50 µg/mL (≈ 128 µM) | 12.5 µg/mL (≈ 32 µM) | 6.25 µg/mL (≈ 16 µM) | 50 µg/mL (≈ 128 µM) | 25 µg/mL (≈ 64 µM) | 12.5 µg/mL (≈ 32 µM) | 12.5 µg/mL (≈ 32 µM) | – | – | – | –
O=C(Nc1ccc2oc(Cc3ccccc3)nc2c1)c1ccc(Br)cc1 | 25 µg/mL (≈ 61.4 µM) | 50 µg/mL (≈ 123 µM) | 25 µg/mL (≈ 61.4 µM) | 50 µg/mL (≈ 123 µM) | 25 µg/mL (≈ 61.4 µM) | 50 µg/mL (≈ 123 µM) | 25 µg/mL (≈ 61.4 µM) | – | – | – | –
Cc1ccc(C(=O)Nc2ccc3oc(Cc4ccc(Cl)cc4)nc3c2)cc1C | 50 µg/mL (≈ 128 µM) | 25 µg/mL (≈ 64 µM) | 100 µg/mL (≈ 256 µM) | 12.5 µg/mL (≈ 32 µM) | 50 µg/mL (≈ 128 µM) | 50 µg/mL (≈ 128 µM) | 12.5 µg/mL (≈ 32 µM) | – | – | – | –
CCc1ccc(C(=O)Nc2ccc3oc(Cc4ccccc4)nc3c2)cc1 | 50 µg/mL (≈ 140 µM) | 50 µg/mL (≈ 140 µM) | 25 µg/mL (≈ 70.1 µM) | 50 µg/mL (≈ 140 µM) | 12.5 µg/mL (≈ 35.1 µM) | 50 µg/mL (≈ 140 µM) | 25 µg/mL (≈ 70.1 µM) | – | – | – | –
Clc1cc(Cl)c(OCC#CI)cc1Cl [HALOPROGIN] | – | – | 3.12 µg/mL (≈ 8.63 µM) | – | – | – | – | – | – | – | –
O=C(Cc1ccc([N+](=O)[O-])cc1)Nc1ccc2oc(Cc3ccc(Cl)cc3)nc2c1 | 25 µg/mL (≈ 59.3 µM) | 50 µg/mL (≈ 119 µM) | 12.5 µg/mL (≈ 29.6 µM) | 50 µg/mL (≈ 119 µM) | 25 µg/mL (≈ 59.3 µM) | 50 µg/mL (≈ 119 µM) | 25 µg/mL (≈ 59.3 µM) | – | – | – | –
O=C(Nc1ccc2oc(Cc3ccc(Cl)cc3)nc2c1)c1ccccc1 | 100 µg/mL (≈ 276 µM) | 50 µg/mL (≈ 138 µM) | 50 µg/mL (≈ 138 µM) | 200 µg/mL (≈ 551 µM) | 25 µg/mL (≈ 68.9 µM) | 100 µg/mL (≈ 276 µM) | 25 µg/mL (≈ 68.9 µM) | – | – | – | –
CN(C)[C@@H]1C(O)=C(C(N)=O)C(=O)[C@@]2(O)C(O)=C3C(=O)c4c(O)cccc4[C@@](C)(O)[C@H]3C[C@@H]12 [TETRACYCLINE] | 50 µg/mL (≈ 113 µM) | 1.56 µg/mL (≈ 3.51 µM) | – | 1.56 µg/mL (≈ 3.51 µM) | – | 3.12 µg/mL (≈ 7.02 µM) | – | – | – | – | –
O=C(Nc1ccc2oc(Cc3ccc(Cl)cc3)nc2c1)c1ccc([N+](=O)[O-])cc1 | 25 µg/mL (≈ 61.3 µM) | 50 µg/mL (≈ 123 µM) | 50 µg/mL (≈ 123 µM) | 100 µg/mL (≈ 245 µM) | 25 µg/mL (≈ 61.3 µM) | 25 µg/mL (≈ 61.3 µM) | 25 µg/mL (≈ 61.3 µM) | – | – | – | –
O=C(Cc1ccc(F)cc1)Nc1ccc2oc(Cc3ccccc3)nc2c1 | 25 µg/mL (≈ 69.4 µM) | 25 µg/mL (≈ 69.4 µM) | 50 µg/mL (≈ 139 µM) | 50 µg/mL (≈ 139 µM) | 12.5 µg/mL (≈ 34.7 µM) | 25 µg/mL (≈ 69.4 µM) | 12.5 µg/mL (≈ 34.7 µM) | – | – | – | –
CC(C)(C)c1ccc(C(=O)Nc2ccc3oc(Cc4ccccc4)nc3c2)cc1 | 25 µg/mL (≈ 65 µM) | 50 µg/mL (≈ 130 µM) | 50 µg/mL (≈ 130 µM) | 200 µg/mL (≈ 520 µM) | 25 µg/mL (≈ 65 µM) | 25 µg/mL (≈ 65 µM) | 25 µg/mL (≈ 65 µM) | – | – | – | –
GENTAMICIN | – | – | – | – | – | – | – | 12.5 µg/mL | 1.56 µg/mL | 3.12 µg/mL | 12.5 µg/mL
Cc1ccc(CC(=O)Nc2ccc3oc(Cc4ccccc4)nc3c2)cc1 | 25 µg/mL (≈ 70.1 µM) | 25 µg/mL (≈ 70.1 µM) | 25 µg/mL (≈ 70.1 µM) | 25 µg/mL (≈ 70.1 µM) | 12.5 µg/mL (≈ 35.1 µM) | 25 µg/mL (≈ 70.1 µM) | 6.25 µg/mL (≈ 17.5 µM) | – | – | – | –
O=C(Cc1ccc(F)cc1)Nc1ccc2oc(Cc3ccc(Cl)cc3)nc2c1 | 25 µg/mL (≈ 63.3 µM) | 100 µg/mL (≈ 253 µM) | 50 µg/mL (≈ 127 µM) | 12.5 µg/mL (≈ 31.7 µM) | 50 µg/mL (≈ 127 µM) | 50 µg/mL (≈ 127 µM) | 25 µg/mL (≈ 63.3 µM) | – | – | – | –
O=C(Cc1ccccc1)Nc1ccc2oc(Cc3ccc(Cl)cc3)nc2c1 | 25 µg/mL (≈ 66.3 µM) | 25 µg/mL (≈ 66.3 µM) | 25 µg/mL (≈ 66.3 µM) | 50 µg/mL (≈ 133 µM) | 25 µg/mL (≈ 66.3 µM) | 50 µg/mL (≈ 133 µM) | 25 µg/mL (≈ 66.3 µM) | – | – | – | –
CC(C)(C)c1ccc(C(=O)Nc2ccc3oc(Cc4ccc(Cl)cc4)nc3c2)cc1 | 50 µg/mL (≈ 119 µM) | 50 µg/mL (≈ 119 µM) | 50 µg/mL (≈ 119 µM) | 25 µg/mL (≈ 59.7 µM) | 50 µg/mL (≈ 119 µM) | 50 µg/mL (≈ 119 µM) | 50 µg/mL (≈ 119 µM) | – | – | – | –
O=C(Nc1ccc2oc(Cc3ccccc3)nc2c1)c1ccc([N+](=O)[O-])cc1 | 25 µg/mL (≈ 67 µM) | 25 µg/mL (≈ 67 µM) | 12.5 µg/mL (≈ 33.5 µM) | 50 µg/mL (≈ 134 µM) | 12.5 µg/mL (≈ 33.5 µM) | 100 µg/mL (≈ 268 µM) | 12.5 µg/mL (≈ 33.5 µM) | – | – | – | –
O=C(Cc1ccc(Cl)cc1)Nc1ccc2oc(Cc3ccccc3)nc2c1 | 50 µg/mL (≈ 133 µM) | 100 µg/mL (≈ 265 µM) | 25 µg/mL (≈ 66.3 µM) | 100 µg/mL (≈ 265 µM) | 25 µg/mL (≈ 66.3 µM) | 50 µg/mL (≈ 133 µM) | 25 µg/mL (≈ 66.3 µM) | – | – | – | –
O=C(Cc1ccc([N+](=O)[O-])cc1)Nc1ccc2oc(Cc3ccccc3)nc2c1 | 25 µg/mL (≈ 64.5 µM) | 50 µg/mL (≈ 129 µM) | 25 µg/mL (≈ 64.5 µM) | 50 µg/mL (≈ 129 µM) | 25 µg/mL (≈ 64.5 µM) | 50 µg/mL (≈ 129 µM) | 25 µg/mL (≈ 64.5 µM) | – | – | – | –
CN[C@@H]1[C@H](O[C@H]2[C@H](O[C@H]3[C@H](O)[C@@H](O)[C@H](N=C(N)N)[C@@H](O)[C@@H]3N=C(N)N)O[C@@H](C)[C@]2(O)C=O)O[C@@H](CO)[C@H](O)[C@H]1O (stereo in doubt) [STREPTOMYCIN] | 100 µg/mL (≈ 172 µM) | 50 µg/mL (≈ 86 µM) | – | 3.12 µg/mL (≈ 5.36 µM) | 13 µg/mL (≈ 22.4 µM) | 1.56 µg/mL (≈ 2.68 µM) | – | – | – | – | –
O=C(Cc1ccc(Br)cc1)Nc1ccc2oc(Cc3ccc(Cl)cc3)nc2c1 | 50 µg/mL (≈ 110 µM) | 25 µg/mL (≈ 54.9 µM) | 12.5 µg/mL (≈ 27.4 µM) | 50 µg/mL (≈ 110 µM) | 50 µg/mL (≈ 110 µM) | 50 µg/mL (≈ 110 µM) | 25 µg/mL (≈ 54.9 µM) | – | – | – | –
